Source: patent US8987195B2 (priority 2012, dated 2015)
Read-outs that look alike come from different tables or passages of the source.

Legend:
[1] = target: HCV NS3/4A protease A156T mutant (Hepatitis C virus genotype 1b, UniProt P26663, A1182T); assay: HCV NS3/4A protease time-resolved fluorescence (TRF) assay, Ki against A156T mutant; type: biochemical; details: read-out: IC50 [gt-1b A156T]
Experimental: (§1) Measuring NS3/4A Inhibitory Activity (Ki) Against Genotype 1b, Against A156T Mutants and Against Genotype 3a
(§2) One assay for measuring inhibitory activity is HCV NS3 protease time-resolved fluorescence (TRF) assay as described below and in Mao et al., Anal. Biochem. 373:1-8, 2008 and International Patent Application Publication WO 2006/102087. A NS3 protease assay can be performed, for example, in a final volume of 20 μl assay buffer containing 50 mM HEPES, pH 7.5, 150 mM NaCl, 15% glycerol, 0.15% TRITON X-100, 10 mM DTT, and 0.1% PEG 8000. NS3 and NS4A protease is pre-incubated with various concentrations of inhibitors in DMSO for 30 min. The reaction is initiated by adding the TRF peptide substrate (final concentration 25 nM). NS3 mediated hydrolysis of the substrate was run for 2.5 hours at room temperature. Product fluorescence is detected using A Pherastar Plus plate reader (BMG) or Envision (Perkin Elmer Life and Analytical Sciences with excitation at 340 nm and emission at 615 nm using the appropriate delay time optimized for the europium fluorescence probe. Testing concentrations of different enzyme forms are selected to result in a signal to background ratio (S/B) of 10-30. IC50 values are derived using a standard four-parameter fit to the data. Ki values are derived from IC50 values using the following formula, IC50=Ki(1+[S]/KM), Eqn (1), where [S] is the concentration of substrate peptide in the reaction and KM is the Michaelis constant. See P. Gallinari et al., 38 BIOCHEM. 5620-32 (1999); P. Gallinari et al., 72 J. VIROL. 6758-69 (1998); M. Taliani et al., 240 ANAL. BIOCHEM. 60-67 (1996); Mao et al., Analytical Biochemistry 373: 1-8, 2008.
(§3) The assay described above was run against genotype 1b at a concentration of 0.2 nM, against A156T mutant strains at a concentration of 0.4 nM, and against genotype 3a at a concentration of 0.025 nM.

HCV genotype 1b replicon = assay: HCV replicon assay, genotype 1b replicon EC50; type: cell-based, Hepatitis C virus; details: Hepatitis C virus, read-out: EC50 [gt-1b]
Summary of the method: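 Compound dilution series incubated 24-48 h, G418 absent, with HCV genotype 1b replicon cell lines kept under G418 selection beforehand. Luciferase signal or replicon RNA, by ^32P hybridization/protection or TaqMan normalized to cyclophilin A, was measured after washing and lysis. Four-parameter fitting against DMSO control gave EC50.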

[2] = target: HCV NS3/4A protease genotype 1b (Hepatitis C virus genotype 1b, UniProt P26663); assay: HCV NS3/4A protease time-resolved fluorescence (TRF) assay, Ki against genotype 1b; type: biochemical
Summary of the method: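 Enzyme 0.2 nM 1b / 0.4 nM A156T / 0.025 nM 3a; 30 min preinc. w/ cpd; 25 nM TRF peptide; 2.5 h RT; ex 340/em 615 time-delayed; 4-param IC50 → Ki = IC50/(1+[S]/KM).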

[3] = target: HCV NS3/4A protease genotype 3a (Hepatitis C virus genotype 3a, UniProt Q81495); assay: HCV NS3/4A protease time-resolved fluorescence (TRF) assay, Ki against genotype 3a; type: biochemical
Experimental: as §1, §2, §3

[4] = NS3/4A protease TRF assay, A156T mutant enzyme 0.4 nM
[5] = IC50 [gt-1b], NS3/4A protease TRF assay, genotype 1b enzyme 0.2 nM
[6] = NS3/4A protease TRF assay, A156T mutant enzyme 0.4 nM, K+ salt
[7] = HCV replicon, genotype 1b, K+ salt
[8] = IC50 [gt-1b], NS3/4A protease TRF assay, genotype 1b enzyme 0.2 nM, K+ salt
[9] = NS3/4A gt-1b A156T mutant, enzyme 0.4 nM, K+ salt
[10] = IC50 [gt-1b] (nM), NS3/4A genotype 1b, enzyme 0.2 nM, K+ salt

SMILES	IC50 [1, 4] [nM]	IC50 [2, 5] [nM]	IC50 [3] [nM]	IC50 [1, 9] [nM]	EC50 (HCV genotype 1b replicon; genotype 1b replicon, K+ salt) [nM]	IC50 [2, 10] [nM]	also measured
COc1ccc2nc(C)c3c(c2n1)CC[C@]1(C[C@H]2C(=O)N[C@]4(C(=O)NS(=O)(=O)C5(C)CC5)C[C@H]4/C=C\CCCCC[C@H](NC(=O)OCC(C)(C)C)C(=O)N2C1)O3 [Example 361, 2,2-dimethylpropyl [(2R,6S,12Z,13aS,14aR,16aS)-2′-methoxy-6′-methyl-14a-{[(1-methylcyclopropyl)sulfonyl]carbamoyl}-5,16-dioxo-1,5,6,7,8,9,9′,10,10′,11,13a,14,14a,15,16,16a-hexadecahydrospiro[cyclopropa[e]pyrrolo[1,2-a][1,4]diazacyclopentadecine-2,8′-pyrano[2,3-c][1,5]naphthyridin]-6-yl]carbamate]	0.241	0.012	0.433				EC50 (HCV genotype 1b replicon; HCV replicon, genotype 1b): 4.43 nM
COc1ccc2nc(C)c3c(c2c1)[C@H](F)C[C@]1(C[C@H]2C(=O)N[C@]4(C(=O)NS(=O)(=O)C5(C)CC5)C[C@H]4/C=C\CCCCC[C@H](NC(=O)OCC(C)(C)F)C(=O)N2C1)O3 [Example 370, 2-fluoro-2-methylpropyl [(1′R,2S,6S,12Z,13aS,14aR,16aS)-1′-fluoro-9′-methoxy-5′-methyl-14a-{[(1-methylcyclopropyl)sulfonyl]carbamoyl}-5,16-dioxo-1,1′,2′,5,6,7,8,9,10,11,13a,14,14a,15,16,16a-hexadecahydrospiro[cyclopropa[e]pyrrolo[1,2-a][1,4]diazacyclopentadecine-2,3′-pyrano[2,3-c]quinolin]-6-yl]carbamate]			0.149				IC50 [1, 6]: 0.037 nM; EC50 (HCV genotype 1b replicon; [7]): 8.56 nM; IC50 [2, 8]: 0.009 nM
COc1ccc2nc(C(F)(F)F)c3c(c2c1)CC[C@]1(C[C@H]2C(=O)N[C@]4(C(=O)NS(=O)(=O)C5(C)CC5)C[C@H]4/C=C\CCCCC[C@H](NC(=O)OCC(C)(C)C)C(=O)N2C1)O3 [Example 382, 2,2-dimethylpropyl [(2R,6S,12Z,13aS,14aR,16aS)-9′-methoxy-14a-{[(1-methylcyclopropyl)sulfonyl]carbamoyl}-5,16-dioxo-5′-(trifluoromethyl)-1,1′,2′,5,6,7,8,9,10,11,13a,14,14a,15,16,16a-hexadecahydrospiro[cyclopropa[e]pyrrolo[1,2-a][1,4]diazacyclopentadecine-2,3′-pyrano[2,3-c]quinolin]-6-yl]carbamate]			1.09				IC50 [1, 6]: 2.34 nM; EC50 (HCV genotype 1b replicon; [7]): 3.61 nM; IC50 [2, 8]: 0.028 nM
Cc1nc2cc(F)c(F)cc2c2c1O[C@]1(CC2)C[C@H]2C(=O)N[C@]3(C(=O)NS(=O)(=O)C4(C)CC4)C[C@H]3/C=C\CCCCC[C@H](NC(=O)OC3(C)CC3)C(=O)N2C1 [Example 195, 1-methylcyclopropyl [(2R,6S,12Z,13aS,14aR,16aS)-8′,9′-difluoro-5′-methyl-14a-{[(1-methylcyclopropyl)sulfonyl]carbamoyl}-5,16-dioxo-1,1′,2′,5,6,7,8,9,10,11,13a,14,14a,15,16,16a-hexadecahydrospiro[cyclopropa[e]pyrrolo[1,2-a][1,4]diazacyclopentadecine-2,3′-pyrano[2,3-c]quinolin]-6-yl]carbamate]			1.73	0.134	8.67	0.01	
Cc1nc2ccc(C(F)(F)F)cc2c2c1O[C@]1(CC2)C[C@H]2C(=O)N[C@]3(C(=O)NS(=O)(=O)C4(C)CC4)C[C@H]3/C=C\CCCCC[C@H](NC(=O)OCC(C)(C)C)C(=O)N2C1 [Example 255, 2,2-dimethylpropyl [(2R,6S,12Z,13aS,14aR,16aS)-5′-methyl-14a-{[(1-methylcyclopropyl)sulfonyl]carbamoyl}-5,16-dioxo-9′-(trifluoromethyl)-1,1′,2′,5,6,7,8,9,10,11,13a,14,14a,15,16,16a-hexadecahydrospiro[cyclopropa[e]pyrrolo[1,2-a][1,4]diazacyclopentadecine-2,3′-pyrano[2,3-c]quinolin]-6-yl]carbamate]			2.86				IC50 ([1]; NS3/4A gt-1b A156T mutant, enzyme 0.4 nM): 0.679 nM; EC50 (HCV genotype 1b replicon; genotype 1b replicon): 50.9 nM; IC50 ([2]; IC50 [gt-1b] (nM), NS3/4A genotype 1b, enzyme 0.2 nM): 0.015 nM
COc1ccc2nc(C)c3c(c2c1)CC[C@]1(C[C@H]2C(=O)N[C@]4(C(=O)NS(=O)(=O)C5(C)CC5)C[C@H]4/C=C\CCCCC[C@H](NC(=O)OC4CCC4)C(=O)N2C1)O3 [Example 199, cyclobutyl [(2R,6S,12Z,13aS,14aR,16aS)-9′-methoxy-5′-methyl-14a-{[(1-methylcyclopropyl)sulfonyl]carbamoyl}-5,16-dioxo-1,1′,2′,5,6,7,8,9,10,11,13a,14,14a,15,16,16a-hexadecahydrospiro[cyclopropa[e]pyrrolo[1,2-a][1,4]diazacyclopentadecine-2,3′-pyrano[2,3-c]quinolin]-6-yl]carbamate]			0.287	0.0462	1	0.003	
Cc1nc2cc(F)c(F)cc2c2c1O[C@]1(CC2)C[C@H]2C(=O)N[C@]3(C(=O)NS(=O)(=O)C4(C)CC4)C[C@H]3/C=C\CCCCC[C@H](NC(=O)OC(C)C)C(=O)N2C1 [Example 194, propan-2-yl [(2R,6S,12Z,13aS,14aR,16aS)-8′,9′-difluoro-5′-methyl-14a-{[(1-methylcyclopropyl)sulfonyl]carbamoyl}-5,16-dioxo-1,1′,2′,5,6,7,8,9,10,11,13a,14,14a,15,16,16a-hexadecahydrospiro[cyclopropa[e]pyrrolo[1,2-a][1,4]diazacyclopentadecine-2,3′-pyrano[2,3-c]quinolin]-6-yl]carbamate]			0.994	0.0541	8.28	0.007	
COc1cc(Cl)c2nc(C(F)(F)F)c3c(c2c1)CC[C@]1(C[C@H]2C(=O)N[C@]4(C(=O)NS(=O)(=O)C5(C)CC5)C[C@H]4/C=C\CCCCC[C@H](NC(=O)OCC(C)C)C(=O)N2C1)O3 [Example 399, 2-methylpropyl [(2R,6S,12Z,13aS,14aR,16aS)-7′-chloro-9′-methoxy-14a-{[(1-methylcyclopropyl)sulfonyl]carbamoyl}-5,16-dioxo-5′-(trifluoromethyl)-1,1′,2′,5,6,7,8,9,10,11,13a,14,14a,15,16,16a-hexadecahydrospiro[cyclopropa[e]pyrrolo[1,2-a][1,4]diazacyclopentadecine-2,3′-pyrano[2,3-c]quinolin]-6-yl]carbamate]	1.45	0.027	6.45				
COc1cc(Cl)c2nc(C(F)(F)F)c3c(c2c1)CC[C@]1(C[C@H]2C(=O)N[C@]4(C(=O)NS(=O)(=O)C5(C)CC5)C[C@H]4/C=C\CCCCC[C@H](NC(=O)OC(C)(C)C)C(=O)N2C1)O3 [Example 398, tert-butyl [(2R,6S,12Z,13aS,14aR,16aS)-7′-chloro-9′-methoxy-14a-{[(1-methylcyclopropyl)sulfonyl]carbamoyl}-5,16-dioxo-5′-(trifluoromethyl)-1,1′,2′,5,6,7,8,9,10,11,13a,14,14a,15,16,16a-hexadecahydrospiro[cyclopropa[e]pyrrolo[1,2-a][1,4]diazacyclopentadecine-2,3′-pyrano[2,3-c]quinolin]-6-yl]carbamate]	0.496	0.025	2.35				
